From PubChem BioAssay (NCI) come the findings set out here.

Common to all, as to experiment: DTP human tumour cell line panel, 48 h
For assay [1], the system named is NCI-H460 lung.
Assay [2] deals with SN12C renal.
For assay [3], the system named is SNB-19 CNS.
Assay [4] relates to OVCAR-3 ovarian.
The test system of assay [5] is HOP-92 NSCLC.
For assay [6], the system named is SK-MEL-2 melanoma.
Assay [7] concerns COLO 205 colon.
The test system of assay [8] is HOP-62 NSCLC.
Assay [9] concerns SK-MEL-5 melanoma.
The test system of assay [10] is PC-3 prostate.

Molecules are shown by their SMILES. Several values for one entry are separate records, joined by “and”; a condition that tells them apart may be missing. Identical values can stand only once.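 Values below derive from 48-hour exposures of cells grown in 96-well plates, with endpoints linearly interpolated between the two concentrations bracketing the appropriate inhibition level. GI50 is the concentration that inhibits growth by half. Definition used: TGI = concentration required for complete inhibition of growth.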 A value given as a limit tells only on which side of the number the result lay.

One may read the TGI as the concentration giving total growth inhibition. The low end stands for greater sensitivity of the cells, the high end for lower sensitivity of the cells. As to `Cn1c(=O)c2[nH]c(/N=N/N3CCN(CCO)CC3)nc2n(C)c1=O`, the TGI in [1], in [2], in [3], in [4], in [5] and in [6] was more than 100 µM in each case. Besides, the TGI in assay [7], in assay [8], in [9] and in assay [10] was more than 100 µM each time.

One may read the GI50 as the concentration at which growth is held to half of that of the control. With `CC1(C)CCC2(C(=O)OC3OC(CO)C(O)C(O)C3O)CC[C@]3(C)C(=CCC4C5(C)CC[C@H](OC6OC(C(=O)O)C(O)C(O)C6O)C(C)(C)C5CCC43C)C2C1` (some centres undefined), the GI50 was 2.51 µM in assay [1]; 1.39 µM in assay [2]; 1.44 µM in [3]; 3.27 µM in [4]; 1.04 µM in assay [5]; 1.85 µM in [6]. In addition, the GI50 in assay [7] was 1.36 µM; in assay [8], 2.22 µM; in [9] it was 0.929 µM; in assay [10], 1.26 µM. The TGI is more than 50 µM in [1]; 3.55 µM in assay [2]; 8.39 µM in assay [3]; more than 50 µM in assay [4]; 2.98 µM in assay [5]; 10.7 µM in [6]. In addition, the TGI in assay [7] was 3.55 µM; in assay [8], 7.6 µM; in assay [9], 1.78 µM; in [10], 3.47 µM.

For `Fc1ccc2[nH]cc(Cc3c[nH]c4ccc(F)cc34)c2c1`, the GI50 in [1] is 25.3 µM; in assay [2], 21.6 µM; in [3], 20.2 µM; in assay [4], 19.5 µM; in assay [5], 15.4 µM; in assay [6], 19.8 µM. The GI50 is 28.2 µM in assay [7], 19.6 µM in assay [8], 17.5 µM in [9] and 15 µM in [10]. Further, the TGI in assay [1] is more than 100 µM; in [2], 51.4 µM; in assay [3] it was 51.9 µM; in assay [4] it was 52.8 µM; in assay [5] it was 34.1 µM; in assay [6], 46.1 µM. In addition, the TGI in assay [7] came out at 95.6 µM; in [8], 40.9 µM; in assay [9] it was 35.3 µM; in assay [10] it was 35 µM.

In the case of `C=C(C)[C@@H]1CC[C@]2(C(=O)NCCCN)CC[C@]3(C)[C@H](CC[C@@H]4[C@@]5(C)CC[C@H](O)C(C)(C)[C@@H]5CC[C@]43C)[C@@H]12`, the GI50 is 14 µM in assay [1]; 20.8 µM in [2]; 24.7 µM in assay [3]; 15.7 µM in assay [4]; 10.8 µM in assay [5]; 27.3 µM in assay [6]. The GI50 in assay [7] was 21 µM; in assay [8], 18.3 µM; in assay [9], 19.4 µM; in assay [10] it was 12.6 µM. For the same compound, the TGI in assay [1] was more than 100 µM; in [2] it was 82.6 µM; in [3], 84.5 µM; in assay [4], 39.5 µM; in [5], 35.4 µM; in assay [6], 85.8 µM. The TGI is more than 100 µM in assay [7], 88.4 µM in assay [8], 48.6 µM in assay [9] and 37.8 µM in assay [10].

Take `Nc1ncnc2c1ccn2C1OC2COP(=O)(O)OC2C1O` (centres undefined): the TGI is 12.9 µM in assay [1]; 12.7 µM in assay [2]; more than 75.9 µM in assay [3]; more than 96.3 µM in [4]; 7.41 µM in assay [5]; 5.52 µM in assay [6]. Besides, the concentration for total growth inhibition (TGI) came out at 3.99 µM in assay [7], 11.2 µM in [8], 1.59 µM in assay [9] and 3.07 µM in [10].

As to `C=C(C)[C@@H]1CC=C(CO)CC1`, the GI50 in assay [1], in assay [2], in [3], in assay [4], in [5] and in assay [6] was more than 10 µM in each case. For the same compound, the GI50 in assay [7], in assay [8] and in assay [9] was more than 10 µM each time. Besides, the TGI in assay [1] is > 10 µM and 1260 µM; in assay [2], > 10 µM and 1220 µM; in [3], > 10 µM and 1010 µM; in assay [4], > 10 µM and 736 µM; in assay [5], > 10 µM and 830 µM; in assay [6], > 10 µM and 817 µM. Further, the TGI was > 10 µM and 768 µM in [7]; > 10 µM and 961 µM in assay [8]; > 10 µM and 649 µM in [9]; more than 10 µM in assay [10].

As for `N#CSc1ncnc2nc[nH]c12`, the GI50 was 17.3 µM in [1]; 51.7 µM in [2]; more than 100 µM in assay [3]; 1.66 µM in assay [4]; 6.91 µM in [5]; 37.6 µM in [6]. Further, the GI50 in assay [7] was 5.31 µM; in assay [8] it was 2.31 µM; in assay [9] it was 15.2 µM; in assay [10] it was 28.7 µM. Moreover, the TGI in [1] was more than 100 µM; in assay [2], more than 100 µM; in assay [3], more than 100 µM; in assay [4], more than 31.6 µM; in assay [5] it was more than 94 µM; in [6] it was more than 100 µM. Moreover, the TGI in assay [7] was 22 µM; in [8], more than 100 µM; in assay [9], more than 100 µM; in [10] it was more than 100 µM.

`O=C(CCN1CCCC1)Nc1ccc2c(NCc3ccc(F)cc3)c3ccccc3nc2c1`: the GI50 in [1] was 0.336 µM; in assay [2], 0.39 µM; in assay [3], 0.47 µM; in assay [4], 0.488 µM; in assay [5] it was 0.366 µM; in assay [6], 1.21 µM. The GI50 in assay [7] is 0.396 µM; in assay [8] it was 0.611 µM; in [9] it was 1.44 µM; in assay [10], 0.479 µM. Further, the TGI in [1] was determined as 1.15 µM; in assay [2], 1.66 µM; in [3], 1.87 µM; in [4], 1.92 µM; in assay [5], 2.07 µM; in [6], 2.7 µM. Besides, the TGI in [7] was 1.65 µM; in [8] it was 2.62 µM; in [9] it was 2.76 µM; in [10] it was 1.9 µM.

Turning to `CN(C)CCNC(=O)c1cccn2c(=O)c3cc4ccccc4cc3nc12`, the GI50 in assay [1] is 0.0439 µM; in [2], 0.144 µM; in assay [3], 0.185 µM; in [4], 0.16 µM; in [5], 0.538 µM; in assay [6], 0.203 µM. Moreover, the GI50 in assay [7] is 0.0973 µM; in assay [8], 0.0784 µM; in [9], 0.131 µM; in assay [10], 0.194 µM. In addition, the TGI was 0.283 µM in [1]; more than 100 µM in assay [2]; 47.7 µM in assay [3]; 0.573 µM in assay [4]; more than 100 µM in assay [5]; 1.32 µM in assay [6]. The TGI is 0.246 µM in assay [7], 0.554 µM in assay [8], 0.476 µM in assay [9] and more than 22 µM in [10].

As to `CC(C)(O)c1ccc(N2CCN(c3nnc(Cc4ccccc4)c4ccccc34)CC2)nc1`, the GI50 in assay [1] is 9.83 µM; in assay [2] it was 7.32 µM; in assay [3] it was 15.8 µM; in assay [4] it was 10.4 µM; in assay [5], 7.74 µM; in assay [6] it was 9.57 µM. The GI50 in assay [7] is 5.41 µM; in [8], 13.7 µM; in assay [9] it was 2.84 µM; in assay [10], 10.7 µM. Also, the TGI was 34.3 µM in assay [1]; 33 µM in assay [2]; 67.1 µM in assay [3]; 47.5 µM in assay [4]; 38.7 µM in assay [5]; 26.2 µM in assay [6]. Besides, the TGI is 16 µM in assay [7], 28.6 µM in assay [8], 8.64 µM in assay [9] and more than 56.5 µM in [10].

Regarding `CCN=C1C=CC(=C(c2ccc(N(C)C)cc2)c2ccc(N(C)C)cc2)c2ccccc21`, the GI50 is 0.0657 µM in [1]; 0.035 µM in [2]; 0.217 µM in assay [3]; 0.0301 µM in assay [4]; 0.0414 µM in assay [5]; 0.101 µM in assay [6]. The GI50 was 0.0508 µM in assay [7], 0.0825 µM in [8], 0.0609 µM in [9] and 0.0468 µM in assay [10]. The TGI was found to be 0.572 µM in assay [1]; 1.37 µM in assay [2]; 4.21 µM in assay [3]; 0.121 µM in assay [4]; 0.352 µM in assay [5]; 0.472 µM in assay [6]. The TGI in assay [7] is 0.183 µM; in assay [8], 0.578 µM; in assay [9] it was 0.213 µM; in assay [10], 1.06 µM.

`CCOC(=O)Cc1c[nH]c(=S)[nH]c1=O`: the GI50 in [1], in assay [2], in assay [3], in [4], in assay [5] and in assay [6] was more than 100 µM throughout. Besides, the GI50 in assay [7], in assay [8], in assay [9] and in assay [10] was more than 100 µM in each case. The TGI in assay [1], in [2], in assay [3], in [4], in assay [5] and in assay [6] was more than 100 µM throughout. Also, the TGI in assay [7], in [8], in assay [9] and in assay [10] was more than 100 µM in each case.
